How the values were obtained:
animals = conditions: in animals; cited from earlier work
[1] = in vivo; cited from earlier work
[2] = Competitive binding study of clopidogrel bisulfate and aspirin with SAE-CD (Example 22); format: physicochemical; conditions: pH ~5.5
Procedure: In this example, excess clopidogrel bisulfate was added to solutions containing fixed amounts of SAE-CD and varying amounts of aspirin. FIG. 7 depicts the results of a competitive binding study. […] Thus, in a formulation containing both clopidogrel and aspirin, the formulation may or may not require additional SAE-CD to solubilize both ingredients than would be required to solubilize either component individually.
The competitive binding study was conducted using clopidogrel bisulphate and aspirin (ASA, acetyl salicylic acid). The work was conducted on an auto-titrator such that the pH was maintained at ˜5.5 using sodium hydroxide. The required amount of SBE-β-CD and aspirin was first solubilized in 0.2 μm Millipore filtered water then transferred to the auto-titrator.
After equilibration, the solutions were sampled and analyzed for clopidogrel content.

phosphodiesterase = conditions: cited from earlier work
[3] = test system: ADP-induced platelet aggregation; conditions: i.v., 0.1-300 mg clopidogrel
Procedure: The response was determined as percent of platelet aggregation inhibition following exposure of the subjects' plasma ex-vivo to ADP (5 μM).
Blood samples for determination of ADP-induced platelet aggregation inhibition using the impedance method (see Dyszkiewicz-Korpanty et al. above) were obtained from arm #2 (the arm not used for dosing) at baseline (check-in, Day −1), 15 and 30 minutes, and 2, 5, and 24 hours after dose initiation.
Maximum % platelet inhibition and area under the % platelet inhibition curve was calculated for each individual and summarized by treatment group

platelet aggregation = conditions: subjects who were non-responders to clopidogrel (10-300 mg) perorally
[4] = pH 5.6, 37° C., 0.1M phosphate buffer; cited from earlier work

SMILES: COC(=O)[C@@H](c1ccccc1Cl)N1CCc2sccc2C1 (single isomer, unassigned) [(R)-enantiomer of clopidogrel]
- convulsions (animals): can provoke convulsions
- antithrombotic activity [1]: devoid of antithrombotic activity

SMILES: CC(=O)Oc1ccccc1C(=O)O [aspirin, acetyl salicylic acid]
- binding with SAE-CD in a solution containing SAE-CD and clopidogrel salt [2]: binds competitively

SMILES: COC(=O)[C@H](c1ccccc1Cl)N1CCc2sccc2C1.O=S(=O)(O)O [clopidogrel bisulfate, methyl (+)-(S)-α-(2-chlorophenyl)-6,7-dihydrothieno[3,2-c]pyridine-5(4H)-acetate sulfate (1:1)]
- inhibition of phosphodiesterase activity (phosphodiesterase): does not inhibit
- time to onset of the therapeutic effect (platelet aggregation inhibition, 5 μM ADP ex vivo) [3]: ≤ 15 min
- subjects deemed responders after parenteral administration (platelet aggregation): 9-25%
- t90 toward hydrolysis [4]: about 52.7 days
